Test results as given in ChEMBL document CHEMBL5550180, “Enhancing anti-cancer capacity: Novel class I/II HDAC inhibitors modulate EMT, cell cycle, and apoptosis pathways” (Bioorg Med Chem, 2024).
pIC50: −log10 of the molar value. Activity calls are given as the source filed them. The calls are words filed in the database; no cut-off is given here.

Assays:
A549 [1] = test: cells; assay type: functional, cell-based; conditions: Homo sapiens, A549, 48 h
Description: Anticancer activity against human A549 cells assessed as inhibition of cell growth measured for 48 hrs by MTT assay

HT-29 [2] = test: cells; assay type: functional, cell-based; conditions: Homo sapiens, HT-29, 48 h
Description: Anticancer activity against human HT-29 cells assessed as inhibition of cell growth measured for 48 hrs by MTT assay

NCI-H1299 = test: Anticancer activity against human NCI-H1299 cells assessed as reduction in cell viability at 10 to 40 uM incubated for 48 hrs by MTT assay; assay type: functional, cell-based; conditions: dose 10-40 µM
A549 [3] = test: Anticancer activity against human A549 cells assessed as suppression of cell viability at 10 uM incubated for 48 hrs by MTT assay; assay type: functional, cell-based
HT-29 [4] = test: Anticancer activity against human HT-29 cells assessed as suppression of cell viability at 10 uM incubated for 48 hrs by MTT assay; assay type: functional, cell-based
A549 [5] = test: Anticancer activity against human A549 cells assessed as viable cells by measuring green fluorescence intensity measured for 48 hrs by Calcein AM staining based fluorescent microscopic analysis; assay type: functional, cell-based; conditions: dose 1-20 µM
HT-29 [6] = test: Anticancer activity against human HT-29 cells assessed as viable cells by measuring green fluorescence intensity measured for 48 hrs by Calcein AM staining based fluorescent microscopic analysis; assay type: functional, cell-based; conditions: dose 1-20 µM
A549 [7] = test: Inhibition of colony formation in human A549 cells at 250 to 500 nM measured for 10 days by crystal violet staining based analysis; assay type: functional, cell-based; conditions: dose 250-500 nM, time 10.0 day
HT-29 [8] = test: Inhibition of colony formation in human HT-29 cells at 125 to 250 nM measured for 10 days by crystal violet staining based analysis; assay type: functional, cell-based; conditions: dose 125-250 nM, time 10.0 day
[9] = target: T1, Histone deacetylase (Homo sapiens) (UniProt Q13547+O15379+Q9UBN7+Q92769+Q9UQL6+Q8WUI4+Q9BY41+Q96DB2+P56524+Q9UKV0+Q969S8); test: Inhibition of HDAC in human A549 cells incubated for 48 hrs by Western blot analysis; assay type: cell-based; conditions: dose 0.1-10 µM
[10] = target: T1, Histone deacetylase (Homo sapiens); test: Inhibition of HDAC in human HT-29 cells incubated for 48 hrs by Western blot analysis; assay type: cell-based; conditions: dose 0.1-10 µM
[11] = target: T1, Histone deacetylase (Homo sapiens); test: Inhibition of HDAC in human HT-29 cells assessed as increase in histone acetylation level at 2.5 to 5 uM incubated for 48 hrs by Western blot analysis; assay type: cell-based; conditions: dose 2.5-5 µM
[12] = target: T1, Histone deacetylase (Homo sapiens); test: Inhibition of HDAC in human HT-29 cells assessed as increase in acetyl alpha-tubulin level at 2.5 to 5 uM incubated for 48 hrs by Western blot analysis; assay type: cell-based; conditions: dose 2.5-5 µM
HT-29 [13] = test: Inhibition of cell migration in human HT-29 cells at 1.25 uM measured at 48 hrs by wound healing assay (reference value: 73.2%); assay type: functional
HT-29 [14] = test: Inhibition of cell migration in human HT-29 cells assessed as upregulation of E-cadherin level at 2.5 to 5 uM incubated for 48 hrs by Western blot analysis; assay type: functional, cell-based; conditions: dose 2.5-5 µM
HT-29 [15] = test: Inhibition of cell migration in human HT-29 cells assessed as downregulation of vimentin level at 2.5 to 5 uM incubated for 48 hrs by Western blot analysis; assay type: functional, cell-based; conditions: dose 2.5-5 µM
HT-29 [16] = test: Inhibition of cell migration in human HT-29 cells assessed as downregulation of slug level at 2.5 to 5 uM incubated for 48 hrs by Western blot analysis; assay type: functional, cell-based; conditions: dose 2.5-5 µM
A549 [17] = test: Induction of cell cycle arrest in human A549 cells assessed as accumulation at sub G1 at 5 to 10 uM incubated for 24 to 48 hrs by PI-staining based flow cytometric analysis; assay type: functional; conditions: dose 5-10 µM, time 24-48 hrs
A549 [18] = test: Induction of apoptosis in human A549 cells assessed as increase in PARP level at 5 to 10 uM incubated for 48 hrs by Western blot analysis; assay type: functional, cell-based; conditions: dose 5-10 µM
A549 [19] = test: Induction of apoptosis in human A549 cells assessed as increase in caspase 3 level at 5 to 10 uM incubated for 48 hrs by Western blot analysis; assay type: functional, cell-based; conditions: dose 5-10 µM
A549 [20] = test: Induction of apoptosis in human A549 cells assessed as upregulation of p53 expression at 5 to 10 uM incubated for 48 hrs by Western blot analysis; assay type: functional, cell-based; conditions: dose 5-10 µM
A549 [21] = test: Induction of cell cycle arrest in human A549 cells assessed as effect on p21 level at 5 to 10 uM incubated for 48 hrs by Western blot analysis; assay type: functional, cell-based; conditions: dose 5-10 µM
A549 [22] = test: Induction of cell cycle arrest in human A549 cells assessed as effect on cyclin B1 level at 5 to 10 uM incubated for 48 hrs by Western blot analysis; assay type: functional, cell-based; conditions: dose 5-10 µM
A549 [23] = test: Anticancer activity against human A549 cells cultured as 3D spheroids assessed as suppression of cell growth at 10 uM incubated for 48 hrs by celltiter-glo luminescent assay; assay type: functional, cell-based
HT-29 [24] = test: Anticancer activity against human HT-29 cells cultured as 3D spheroids assessed as suppression of cell growth at 10 uM incubated for 48 hrs by celltiter-glo luminescent assay; assay type: functional, cell-based
[25] = Toxicity in zebrafish embryo assessed as hatching rate at 1 to 5 uM measured after 72 hrs post fertilization by microscopic analysis; design: species or system Danio rerio; conditions: in vivo, dose 1-5 µM
[26] = Toxicity in zebrafish embryo assessed as survival rate at 1 to 5 uM measured after 72 hrs post fertilization; design: species or system Danio rerio; conditions: in vivo, dose 1-5 µM
[27] = Toxicity in zebrafish embryo assessed as effect on body length at 1 to 5 uM measured after 96 hrs post fertilization by microscopic analysis; design: species or system Danio rerio; conditions: in vivo, dose 1-5 µM
[28] = Toxicity in zebrafish embryo assessed as formation of scoliosis at 1 to 5 uM measured after 96 hrs post fertilization by microscopic analysis; design: species or system Danio rerio; conditions: in vivo, dose 1-5 µM
[29] = Toxicity in zebrafish embryo assessed as yolk sac edema at 1 to 5 uM measured after 96 hrs post fertilization by microscopic analysis; design: species or system Danio rerio; conditions: in vivo, dose 1-5 µM
A549 [30] = test: Inhibition of cell migration in human A549 cells at 2.5 uM measured at 24 hrs by wound healing assay (reference value: 68.4%); values are per cent of control; conditions: A549, 24 h
A549 [31] = test: Inhibition of cell migration in human A549 cells at 2.5 uM measured at 48 hrs by wound healing assay (reference value: 42.3%); values are per cent of control; conditions: A549, 48 h
A549 [32] = test: Inhibition of cell migration in human A549 cells at 2.5 uM measured immediately by wound healing assay (reference value: 100%); values are per cent of control
HT-29 [33] = test: Inhibition of cell migration in human HT-29 cells at 1.25 uM measured at 24 hrs by wound healing assay (reference value: 85.7%); values are per cent of control; conditions: HT-29, 24 h
HT-29 [34] = test: Inhibition of cell migration in human HT-29 cells at 1.25 uM measured immediately by wound healing assay (reference value: 100%); values are per cent of control

**Q.** With `Nc1ccccc1NC(=O)c1ccc(Cc2cn(S(=O)(=O)c3ccccc3)c3ccccc23)cc1` as the compound, how does the pIC50 (A549 [1]) read?
**A.** Its pIC50 is 5.31.

**Q.** What about the pIC50 (HT-29 [2]) of the same compound?
**A.** Its pIC50 is 5.72.

**Q.** What about the Activity (NCI-H1299) of the same compound?
**A.** Its Activity is “Active”.

**Q.** And the Activity (A549 [3])?
**A.** The Activity was “Active”.

**Q.** What about the Activity (HT-29 [4]) of the same compound?
**A.** Its Activity is “Active”.

**Q.** What about the Activity (A549 [5]) of the same compound?
**A.** Its Activity is “Dose-Dependent Effect”.

**Q.** What about the Activity (HT-29 [6]) of the same compound?
**A.** Its Activity is “Dose-Dependent Effect”.

**Q.** What about the inhibition (A549 [7]) of the same compound?
**A.** Its inhibition is “Active”.

**Q.** What about the inhibition (HT-29 [8]) of the same compound?
**A.** Its inhibition is “Active”.

**Q.** And the inhibition [9]?
**A.** Its inhibition is “Active”.

**Q.** What about the inhibition [10] of the same compound?
**A.** Its inhibition is “Active”.

**Q.** What about the inhibition [11] of the same compound?
**A.** Its inhibition is “Active”.

**Q.** And the inhibition [12]?
**A.** Its inhibition is “Active”.

**Q.** And the inhibition at 1.25 µM (HT-29 [13])?
**A.** Its inhibition at 1.25 µM is 82.1%.

**Q.** And the inhibition (HT-29 [14])?
**A.** The inhibition was “Active”.

**Q.** And the inhibition (HT-29 [15])?
**A.** Its inhibition is “Active”.

**Q.** And the inhibition (HT-29 [16])?
**A.** Its inhibition is “Active”.

**Q.** What about the Activity (A549 [17]) of the same compound?
**A.** The Activity was “Active”.

**Q.** And the Activity (A549 [18])?
**A.** The Activity was “Active”.

**Q.** What about the Activity (A549 [19]) of the same compound?
**A.** The Activity was “Active”.

**Q.** And the Activity (A549 [20])?
**A.** The Activity was “Active”.

**Q.** What about the Activity (A549 [21]) of the same compound?
**A.** Its Activity is “Active”.

**Q.** And the Activity (A549 [22])?
**A.** The Activity was “Active”.

**Q.** And the Activity (A549 [23])?
**A.** The Activity was “Active”.

**Q.** And the Activity (HT-29 [24])?
**A.** The Activity was “Active”.

**Q.** And the Activity [25]?
**A.** The Activity was 100%.

**Q.** What about the survival at 72 h, up to 5 µM [26] of the same compound?
**A.** The survival at 72 h, up to 5 µM was roughly 100%.

**Q.** What about the Activity [27] of the same compound?
**A.** Its Activity is “Non-Toxic”.

**Q.** What about the Activity [28] of the same compound?
**A.** Its Activity is “Non-Toxic”.

**Q.** And the Activity [29]?
**A.** The Activity was “Non-Toxic”.

**Q.** And the wound area remaining at 2.5 µM (A549 [30])?
**A.** Its wound area remaining at 2.5 µM is 75.8%.

**Q.** And the wound area remaining at 2.5 µM (A549 [31])?
**A.** Its wound area remaining at 2.5 µM is 53.6%.

**Q.** What about the wound area remaining at 2.5 µM (A549 [32]) of the same compound?
**A.** Its wound area remaining at 2.5 µM is 100%.

**Q.** And the wound area remaining at 1.25 µM (HT-29 [33])?
**A.** Its wound area remaining at 1.25 µM is 89.6%.

**Q.** And the wound area remaining at 1.25 µM (HT-29 [34])?
**A.** The wound area remaining at 1.25 µM was 100%.
